Measured values taken from PubChem BioAssay AID1963837 (Molecular Pharmacology Branch, DTP, NCI, 2024).

Tested on: 843126-344-R-J1-PDC complex spheroid viability
Test: Anticancer human tumor 843126-344-R-J1-PDC patient-derived melanoma cell line growth inhibition [POLQ]
Details: for IC50: curve of first compound; for viability, T/C: stronger effect = lower value
How it was run: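 Three-cell-type spheroids modelling solid tumor plus stroma served as the readout system; POL inhibitors were tested individually and in combination, concentration ranges set by clinical Cmax where known.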

[1] = second compound 0.0316 µM, first compound 0.0316 µM
[2] = second compound 0.0316 µM, first compound 0.1 µM
[3] = second compound 0.0316 µM, first compound 0.316 µM
[4] = second compound 0.0316 µM, first compound 1 µM
[5] = second compound 0.0316 µM, first compound 3.16 µM
[6] = second compound 0.0316 µM, first compound 10 µM
[7] = second compound 0.1 µM, first compound 0.0316 µM
[8] = second compound 0.1 µM, first compound 0.1 µM
[9] = second compound 0.1 µM, first compound 0.316 µM
[10] = second compound 0.1 µM, first compound 1 µM
[11] = second compound 0.1 µM, first compound 3.16 µM
[12] = second compound 0.1 µM, first compound 10 µM
[13] = second compound 0.316 µM, first compound 0.0316 µM
[14] = second compound 0.316 µM, first compound 0.1 µM
[15] = second compound 0.316 µM, first compound 0.316 µM
[16] = second compound 0.316 µM, first compound 1 µM
[17] = second compound 0.316 µM, first compound 3.16 µM
[18] = second compound 0.316 µM, first compound 10 µM
[19] = second compound 1 µM, first compound 0.0316 µM
[20] = second compound 1 µM, first compound 0.1 µM
[21] = second compound 1 µM, first compound 0.316 µM
[22] = second compound 1 µM, first compound 1 µM
[23] = second compound 1 µM, first compound 3.16 µM
[24] = second compound 1 µM, first compound 10 µM
[25] = second compound 3.16 µM, first compound 0.0316 µM
[26] = second compound 3.16 µM, first compound 0.1 µM
[27] = second compound 3.16 µM, first compound 0.316 µM
[28] = second compound 3.16 µM, first compound 1 µM
[29] = second compound 3.16 µM, first compound 3.16 µM
[30] = second compound 3.16 µM, first compound 10 µM
[31] = second compound 10 µM, first compound 0.0316 µM
[32] = second compound 10 µM, first compound 0.1 µM
[33] = second compound 10 µM, first compound 0.316 µM
[34] = second compound 10 µM, first compound 1 µM
[35] = second compound 10 µM, first compound 3.16 µM
[36] = second compound 10 µM, first compound 10 µM
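Wherever viability, T/C is given: spheroids exposed to drugs for seven days before readout.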

CCc1cc2c(N3CCc4c(cc(Cn5ccnc5)cc4-c4cn(C)nc4C(F)(F)F)C3=O)ccnc2c(OC)n1 + Cc1cccc(N(C)C(=O)C2C(O)CCN2c2nc(C)cc(C(F)(F)F)c2C#N)c1
IC50 (second compound 0.0316 µM): > 10 µM
IC50 (second compound 0.1 µM): > 10 µM
IC50 (second compound 0.316 µM): > 10 µM
IC50 (second compound 1 µM): > 10 µM
IC50 (second compound 3.16 µM): > 10 µM
IC50 (second compound 10 µM): > 10 µM
viability, T/C [1]: 91.3%
viability, T/C [2]: 79.8%
viability, T/C [3]: 80.6%
viability, T/C [4]: 83.3%
viability, T/C [5]: 69.9%
viability, T/C [6]: 61.4%
viability, T/C [7]: 90%
viability, T/C [8]: 88.4%
viability, T/C [9]: 87.1%
viability, T/C [10]: 90%
viability, T/C [11]: 72.3%
viability, T/C [12]: 60.4%
viability, T/C [13]: 99.6%
viability, T/C [14]: 74.9%
viability, T/C [15]: 86%
viability, T/C [16]: 78.5%
viability, T/C [17]: 69%
viability, T/C [18]: 61.2%
viability, T/C [19]: 101%
viability, T/C [20]: 77.3%
viability, T/C [21]: 86.3%
viability, T/C [22]: 73.5%
viability, T/C [23]: 68%
viability, T/C [24]: 55.3%
viability, T/C [25]: 100%
viability, T/C [26]: 84.8%
viability, T/C [27]: 79.3%
viability, T/C [28]: 72.4%
viability, T/C [29]: 69.3%
viability, T/C [30]: 63.1%
viability, T/C [31]: 88.2%
viability, T/C [32]: 92.2%
viability, T/C [33]: 75.5%
viability, T/C [34]: 68.8%
viability, T/C [35]: 70.7%
viability, T/C [36]: 64.4%

COc1ccc([C@@H](O)c2cc(-c3ncnc4cc(N5CCOCC5)ccc34)c(F)cc2Cl)nn1 + Cc1cccc(N(C)C(=O)C2C(O)CCN2c2nc(C)cc(C(F)(F)F)c2C#N)c1
IC50 (second compound 0.0316 µM): > 10 µM
IC50 (second compound 0.1 µM): > 10 µM
IC50 (second compound 0.316 µM): > 10 µM
IC50 (second compound 1 µM): > 10 µM
IC50 (second compound 3.16 µM): > 10 µM
IC50 (second compound 10 µM): > 10 µM
viability, T/C [1]: 95.1%
viability, T/C [2]: 76.6%
viability, T/C [3]: 93.3%
viability, T/C [4]: 96.9%
viability, T/C [5]: 81%
viability, T/C [6]: 63.5%
viability, T/C [7]: 85.2%
viability, T/C [8]: 92.7%
viability, T/C [9]: 86.4%
viability, T/C [10]: 99.2%
viability, T/C [11]: 93.2%
viability, T/C [12]: 63.3%
viability, T/C [13]: 103%
viability, T/C [14]: 102%
viability, T/C [15]: 92.2%
viability, T/C [16]: 102%
viability, T/C [17]: 76.9%
viability, T/C [18]: 80.9%
viability, T/C [19]: 79.2%
viability, T/C [20]: 101%
viability, T/C [21]: 69.6%
viability, T/C [22]: 86.6%
viability, T/C [23]: 79.8%
viability, T/C [24]: 68.1%
viability, T/C [25]: 81.2%
viability, T/C [26]: 89.1%
viability, T/C [27]: 92.7%
viability, T/C [28]: 81.9%
viability, T/C [29]: 97.4%
viability, T/C [30]: 65.6%
viability, T/C [31]: 74.1%
viability, T/C [32]: 83.5%
viability, T/C [33]: 70.2%
viability, T/C [34]: 66%
viability, T/C [35]: 77.4%
viability, T/C [36]: 64.1%
